Source: ChEMBL document CHEMBL4308897, “Antileishmanial activity and cytotoxicity of ent-beyerene diterpenoids” (Bioorg Med Chem, 2019)
Active and inactive are the calls of the source. No cut-off for these calls is given here.

Tests used:
[1] = Renal toxicity in golden hamster infected with Leishmania (Viannia) braziliensis HMOM/COL/88/UA301-EGFP assessed as turbid degeneration at 200 ug administered intralesionally twice per week for 4 weeks measured 90 days post last dose by histopathological analysis; parameters: species or system Mesocricetus auratus; details: in vivo, other, 2160 h
[2] = Hepatotoxicity in golden hamster infected with Leishmania (Viannia) braziliensis HMOM/COL/88/UA301-EGFP assessed as vacuolar degeneration at 200 ug administered intralesionally twice per week for 4 weeks measured 90 days post last dose by histopathological analysis; format: toxicity, Mesocricetus auratus; details: in vivo, other, 2160 h
[3] = Hepatotoxicity in golden hamster infected with Leishmania (Viannia) braziliensis HMOM/COL/88/UA301-EGFP assessed as external stress condition induced changes at 200 ug administered intralesionally twice per week for 4 weeks measured 90 days post last dose by histopathological analysis; format: toxicity, Mesocricetus auratus; details: in vivo, other, 2160 h
[4] = Renal toxicity in golden hamster infected with Leishmania (Viannia) braziliensis HMOM/COL/88/UA301-EGFP assessed as edema at 200 ug administered intralesionally twice per week for 4 weeks measured 90 days post last dose by histopathological analysis; parameters: species or system Mesocricetus auratus; details: in vivo, other, 2160 h
[5] = Renal toxicity in golden hamster infected with Leishmania (Viannia) braziliensis HMOM/COL/88/UA301-EGFP assessed as infiltration of lymphocytes at 200 ug administered intralesionally twice per week for 4 weeks measured 90 days post last dose by histopathological analysis; parameters: species or system Mesocricetus auratus; details: in vivo, other, 2160 h
[6] = Hepatotoxicity in golden hamster infected with Leishmania (Viannia) braziliensis HMOM/COL/88/UA301-EGFP assessed as infiltration of macrophages at 200 ug administered intralesionally twice per week for 4 weeks measured 90 days post last dose by histopathological analysis; format: toxicity, Mesocricetus auratus; details: in vivo, other, 2160 h
[7] = Renal toxicity in golden hamster infected with Leishmania (Viannia) braziliensis HMOM/COL/88/UA301-EGFP assessed as infiltration of plasma cells at 200 ug administered intralesionally twice per week for 4 weeks measured 90 days post last dose by histopathological analysis; parameters: species or system Mesocricetus auratus; details: in vivo, other, 2160 h
[8] = Renal toxicity in golden hamster infected with Leishmania (Viannia) braziliensis HMOM/COL/88/UA301-EGFP assessed as fibrosis at 200 ug administered intralesionally twice per week for 4 weeks measured 90 days post last dose by histopathological analysis; parameters: species or system Mesocricetus auratus; details: in vivo, other, 2160 h
[9] = Toxicity in golden hamster infected with Leishmania (Viannia) braziliensis HMOM/COL/88/UA301-EGFP assessed as effect on serum creatinine level at 200 ug administered intralesionally twice per week for 4 weeks measured day 8 post last treatment; parameters: species or system Mesocricetus auratus; details: in vivo, other, 672 h
[10] = Hepatotoxicity in golden hamster infected with Leishmania (Viannia) braziliensis HMOM/COL/88/UA301-EGFP assessed as hemosiderin pigmentation at 200 ug administered intralesionally twice per week for 4 weeks measured 90 days post last dose by histopathological analysis; format: toxicity, Mesocricetus auratus; details: in vivo, other, 2160 h
[11] = Hepatotoxicity in golden hamster infected with Leishmania (Viannia) braziliensis HMOM/COL/88/UA301-EGFP assessed as infiltration of lymphocytes at 200 ug administered intralesionally twice per week for 4 weeks measured 90 days post last dose by histopathological analysis; format: toxicity, Mesocricetus auratus; details: in vivo, other, 2160 h
[12] = Renal toxicity in golden hamster infected with Leishmania (Viannia) braziliensis HMOM/COL/88/UA301-EGFP assessed as vacuolar degeneration at 200 ug administered intralesionally twice per week for 4 weeks measured 90 days post last dose by histopathological analysis; parameters: species or system Mesocricetus auratus; details: in vivo, other, 2160 h
[13] = Toxicity in golden hamster infected with Leishmania (Viannia) braziliensis HMOM/COL/88/UA301-EGFP assessed as change in body weight at 200 ug administered intralesionally twice per week for 4 weeks measured up to 90 days post last dose; parameters: species or system Mesocricetus auratus; details: in vivo, other
[14] = Hepatotoxicity in golden hamster infected with Leishmania (Viannia) braziliensis HMOM/COL/88/UA301-EGFP assessed as hyperplasia at 200 ug administered intralesionally twice per week for 4 weeks measured 90 days post last dose by histopathological analysis; format: toxicity, Mesocricetus auratus; details: in vivo, other, 2160 h
[15] = Hepatotoxicity in golden hamster infected with Leishmania (Viannia) braziliensis HMOM/COL/88/UA301-EGFP assessed as congestion at 200 ug administered intralesionally twice per week for 4 weeks measured 90 days post last dose by histopathological analysis; format: toxicity, Mesocricetus auratus; details: in vivo, other, 2160 h
[16] = Toxicity in golden hamster infected with Leishmania (Viannia) braziliensis HMOM/COL/88/UA301-EGFP assessed as effect on serum BUN level at 200 ug administered intralesionally twice per week for 4 weeks measured day 8 post last treatment; parameters: species or system Mesocricetus auratus; details: in vivo, other, 672 h
[17] = Toxicity in golden hamster infected with Leishmania (Viannia) braziliensis HMOM/COL/88/UA301-EGFP assessed as effect on serum alanine aminotransferase level at 200 ug administered intralesionally twice per week for 4 weeks measured day 8 post last treatment; parameters: species or system Mesocricetus auratus; details: in vivo, other, 672 h
Syrian golden hamster [18] = assay: Antiinflammatory activity in golden hamster infected with Leishmania (Viannia) braziliensis HMOM/COL/88/UA301-EGFP assessed as re-epithelialization in skin at 2.6% administered topically as cream formulation for 20 days and measured 3 months post last treatment by histopathological analysis; format: functional, organism-based; details: Mesocricetus auratus
[19] = Selectivity index, ratio of LC50 for human U937 cells to EC50 for Leishmania (Viannia) braziliensis HMOM/COL/88/UA301-EGFP intracellular amastigotes infected in human U937 cells; format: toxicity, cell-based; details: read-out: Selectivity Index
[20] = Toxicity in golden hamster infected with Leishmania (Viannia) braziliensis HMOM/COL/88/UA301-EGFP assessed as effect on serum creatinine level at 2.6% administered topically as cream formulation for 20 days and measured day 8 post last treatment; parameters: species or system Mesocricetus auratus; details: in vivo, topical_or_ocular, 480 h
[21] = Renal toxicity in golden hamster infected with Leishmania (Viannia) braziliensis HMOM/COL/88/UA301-EGFP assessed as vacuolar degeneration at 2.6% administered topically as cream formulation for 20 days measured 90 days post last dose by histopathological analysis; parameters: species or system Mesocricetus auratus; details: in vivo, topical_or_ocular, 2160 h
[22] = Hepatotoxicity in golden hamster infected with Leishmania (Viannia) braziliensis HMOM/COL/88/UA301-EGFP assessed as hemosiderin pigmentation at 2.6% administered topically as cream formulation for 20 days measured 90 days post last dose by histopathological analysis; format: toxicity, Mesocricetus auratus; details: in vivo, topical_or_ocular, 2160 h
[23] = Hepatotoxicity in golden hamster infected with Leishmania (Viannia) braziliensis HMOM/COL/88/UA301-EGFP assessed as infiltration of macrophages at 2.6% administered topically as cream formulation for 20 days measured 90 days post last dose by histopathological analysis; format: toxicity, Mesocricetus auratus; details: in vivo, topical_or_ocular, 2160 h
[24] = Toxicity in golden hamster infected with Leishmania (Viannia) braziliensis HMOM/COL/88/UA301-EGFP assessed as effect on serum BUN level at 2.6% administered topically as cream formulation for 20 days and measured day 8 post last treatment; parameters: species or system Mesocricetus auratus; details: in vivo, topical_or_ocular, 480 h
[25] = Toxicity in golden hamster infected with Leishmania (Viannia) braziliensis HMOM/COL/88/UA301-EGFP assessed as change in body weight at 2.6% administered topically as cream formulation for 20 days measured up to 90 days post last dose; parameters: species or system Mesocricetus auratus; details: in vivo, topical_or_ocular
[26] = Hepatotoxicity in golden hamster infected with Leishmania (Viannia) braziliensis HMOM/COL/88/UA301-EGFP assessed as congestion at 2.6% administered topically as cream formulation for 20 days measured 90 days post last dose by histopathological analysis; format: toxicity, Mesocricetus auratus; details: in vivo, topical_or_ocular, 2160 h
Leishmania braziliensis [27] = assay: Antileishmanial activity against Leishmania (Viannia) braziliensis HMOM/COL/88/UA301-EGFP intracellular amastigotes infected in human U937 cells after 72 hrs by flow cytometric analysis; format: functional, organism-based; details: HMOM/COL/88/UA301, U-937, 72 h
Syrian golden hamster [28] = assay: Antiinflammatory activity in golden hamster infected with Leishmania (Viannia) braziliensis HMOM/COL/88/UA301-EGFP assessed as migration of lymphocytes in skin at 2.6% administered topically as cream formulation for 20 days and measured 3 months post last treatment by histopathological analysis; format: functional, organism-based; details: Mesocricetus auratus
Syrian golden hamster [29] = assay: Antiinflammatory activity in golden hamster infected with Leishmania (Viannia) braziliensis HMOM/COL/88/UA301-EGFP assessed as migration of macrophages in skin at 2.6% administered topically as cream formulation for 20 days and measured 3 months post last treatment by histopathological analysis; format: functional, organism-based; details: Mesocricetus auratus
[30] = Hepatotoxicity in golden hamster infected with Leishmania (Viannia) braziliensis HMOM/COL/88/UA301-EGFP assessed as vacuolar degeneration at 2.6% administered topically as cream formulation for 20 days measured 90 days post last dose by histopathological analysis; format: toxicity, Mesocricetus auratus; details: in vivo, topical_or_ocular, 2160 h
Syrian golden hamster [31] = assay: Antiinflammatory activity in golden hamster infected with Leishmania (Viannia) braziliensis HMOM/COL/88/UA301-EGFP assessed as migration of plasmocytes in skin at 2.6% administered topically as cream formulation for 20 days and measured 3 months post last treatment by histopathological analysis; format: functional, organism-based; details: Mesocricetus auratus
[32] = Toxicity in golden hamster infected with Leishmania (Viannia) braziliensis HMOM/COL/88/UA301-EGFP assessed as effect on serum alanine aminotransferase level at 2.6% administered topically as cream formulation for 20 days and measured day 8 post last treatment; parameters: species or system Mesocricetus auratus; details: in vivo, topical_or_ocular, 480 h
[33] = Cytotoxicity against human U937 cells after 72 hrs by MTT assay; format: cell-based, U-937; details: read-out: LC50
Leishmania braziliensis [34] = assay: Antileishmanial activity against Leishmania (Viannia) braziliensis HMOM/COL/88/UA301-EGFP infected in golden hamster assessed as clinical improvement at 2.6% administered topically as cream formulation for 20 days measured 3 months post last dose relative to control; format: functional
Leishmania braziliensis [35] = assay: Antileishmanial activity against Leishmania (Viannia) braziliensis HMOM/COL/88/UA301-EGFP infected in golden hamster assessed as clinical failure at 2.6% administered topically as cream formulation for 20 days measured 3 months post last dose relative to control; format: functional
[36] = Hepatotoxicity in golden hamster infected with Leishmania (Viannia) braziliensis HMOM/COL/88/UA301-EGFP assessed as infiltration of lymphocytes at 2.6% administered topically as cream formulation for 20 days measured 90 days post last dose by histopathological analysis; format: toxicity, Mesocricetus auratus; details: in vivo, topical_or_ocular, 2160 h
Leishmania braziliensis [37] = assay: Antileishmanial activity against Leishmania (Viannia) braziliensis HMOM/COL/88/UA301-EGFP infected in golden hamster assessed as cure rate at 2.6% administered topically as cream formulation for 20 days measured 3 months post last dose relative to control; format: functional
Leishmania braziliensis [38] = assay: Antileishmanial activity against Leishmania (Viannia) braziliensis HMOM/COL/88/UA301-EGFP infected in golden hamster assessed as relapse at 2.6% administered topically as cream formulation for 20 days measured 3 months post last dose relative to control; format: functional

## MEGLUMINE ANTIMONATE
[1]
  Activity: Toxic
[2]
  Activity: Toxic
[3]
  Activity: Toxic
[4]
  Activity: Toxic
[5]
  Activity: Toxic
[6]
  Activity: Toxic
[7]
  Activity: Toxic
[8]
  Activity: Toxic
[9]
  Activity: Non-Toxic
[10]
  Activity: Toxic
[11]
  Activity: Toxic
[12]
  Activity: Toxic
[13]
  Activity: Toxic
[14]
  Activity: Toxic
[15]
  Activity: Toxic
[16]
  Activity: Non-Toxic
[17]
  Activity: Non-Toxic

## C[C@]12C=C[C@@]3(CC[C@@H]4[C@@](C)(CO)CCC[C@@]4(C)[C@@H]3CC1)C2
Syrian golden hamster [18]
  Activity: Active
[19]
  selectivity ratio: 7.7
[20]
  Activity: Non-Toxic
[21]
  Activity: Toxic
[22]
  Activity: Toxic
[23]
  Activity: Toxic
[24]
  Activity: Non-Toxic
[25]
  Activity: Non-Toxic
[26]
  Activity: Toxic
Leishmania braziliensis [27]
  EC50: 18.1 µM
Syrian golden hamster [28]
  Activity: Active
Syrian golden hamster [29]
  Activity: Active
[30]
  Activity: Toxic
Syrian golden hamster [31]
  Activity: Active
[32]
  Activity: Non-Toxic
[33]
  CC50 at 72 h: 122 µM
Leishmania braziliensis [34]
  Activity: 0%
Leishmania braziliensis [35]
  Activity: 33.3%
[36]
  Activity: Toxic
Leishmania braziliensis [37]
  Activity: 50%
Leishmania braziliensis [38]
  Activity: 16.7%
